In patent US20120183950A1, “TISSUE ANALYSIS” (priority 2009, published 2012):

System: influenza virus H3N2X31
Format: cell-based
Settings: human bronchial and parenchymal lung tissue explants, X31 virus, NP-1 antibody, flow cytometry; FIG. 8

Row | Structure (SMILES) | efficacy as inhibitor of viral infection in the explant model (primary output: percentage of cells infected)
1 | CCOC(=O)C1=C[C@@H](OC(CC)CC)[C@H](NC(C)=O)[C@@H](N)C1 [oseltamivir] | demonstrated the efficacy
2 | Cl.N [ammonium chloride] | demonstrated the efficacy
